# Test system: 276233-004-R-J1-PDC complex spheroid viability
# Test: Anticancer human tumor 276233-004-R-J1-PDC patient-derived colon adenocarcinoma cell line growth inhibition [GQUAD]
# Details: for IC50: curve of first compound; for viability, T/C: stronger effect = lower value
# In short: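 Viability of tumor cells grown as complex spheroids with endothelial and stromal cells, exposed to drug combinations. Top concentration at or near clinical Cmax (else 10 microM), diluted in half-log increments.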
# [1] = second compound 0.0316 µM, first compound 0.0316 µM
# [2] = second compound 0.0316 µM, first compound 0.1 µM
# [3] = second compound 0.0316 µM, first compound 0.316 µM
# [4] = second compound 0.0316 µM, first compound 1 µM
# [5] = second compound 0.0316 µM, first compound 3.16 µM
# [6] = second compound 0.0316 µM, first compound 10 µM
# [7] = second compound 0.1 µM, first compound 0.0316 µM
# [8] = second compound 0.1 µM, first compound 0.1 µM
# [9] = second compound 0.1 µM, first compound 0.316 µM
# [10] = second compound 0.1 µM, first compound 1 µM
# [11] = second compound 0.1 µM, first compound 3.16 µM
# [12] = second compound 0.1 µM, first compound 10 µM
# [13] = second compound 0.316 µM, first compound 0.0316 µM
# [14] = second compound 0.316 µM, first compound 0.1 µM
# [15] = second compound 0.316 µM, first compound 0.316 µM
# [16] = second compound 0.316 µM, first compound 1 µM
# [17] = second compound 0.316 µM, first compound 3.16 µM
# [18] = second compound 0.316 µM, first compound 10 µM
# [19] = second compound 1 µM, first compound 0.0316 µM
# [20] = second compound 1 µM, first compound 0.1 µM
# [21] = second compound 1 µM, first compound 0.316 µM
# [22] = second compound 1 µM, first compound 1 µM
# [23] = second compound 1 µM, first compound 3.16 µM
# [24] = second compound 1 µM, first compound 10 µM
# [25] = second compound 3.16 µM, first compound 0.0316 µM
# [26] = second compound 3.16 µM, first compound 0.1 µM
# [27] = second compound 3.16 µM, first compound 0.316 µM
# [28] = second compound 3.16 µM, first compound 1 µM
# [29] = second compound 3.16 µM, first compound 3.16 µM
# [30] = second compound 3.16 µM, first compound 10 µM
# [31] = second compound 10 µM, first compound 0.0316 µM
# [32] = second compound 10 µM, first compound 0.1 µM
# [33] = second compound 10 µM, first compound 0.316 µM
# [34] = second compound 10 µM, first compound 1 µM
# [35] = second compound 10 µM, first compound 3.16 µM
# [36] = second compound 10 µM, first compound 10 µM
# [37] = second compound 0.0316 µM, first compound 0.000999 µM
# [38] = second compound 0.0316 µM, first compound 0.00316 µM
# [39] = second compound 0.0316 µM, first compound 0.00999 µM
# [40] = second compound 0.0316 µM, first compound 0.0999 µM
# [41] = second compound 0.1 µM, first compound 0.000999 µM
# [42] = second compound 0.1 µM, first compound 0.00316 µM
# [43] = second compound 0.1 µM, first compound 0.00999 µM
# [44] = second compound 0.1 µM, first compound 0.0999 µM
# [45] = second compound 0.316 µM, first compound 0.000999 µM
# [46] = second compound 0.316 µM, first compound 0.00316 µM
# [47] = second compound 0.316 µM, first compound 0.00999 µM
# [48] = second compound 0.316 µM, first compound 0.0999 µM
# [49] = second compound 1 µM, first compound 0.000999 µM
# [50] = second compound 1 µM, first compound 0.00316 µM
# [51] = second compound 1 µM, first compound 0.00999 µM
# [52] = second compound 1 µM, first compound 0.0999 µM
# [53] = second compound 3.16 µM, first compound 0.000999 µM
# [54] = second compound 3.16 µM, first compound 0.00316 µM
# [55] = second compound 3.16 µM, first compound 0.00999 µM
# [56] = second compound 3.16 µM, first compound 0.0999 µM
# [57] = second compound 10 µM, first compound 0.000999 µM
# [58] = second compound 10 µM, first compound 0.00316 µM
# [59] = second compound 10 µM, first compound 0.00999 µM
# [60] = second compound 10 µM, first compound 0.0999 µM
# 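Also: spheroids exposed to drugs for seven days.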
# 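For viability, T/C in this document: 100% = DMSO vehicle control viability.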
compound,measurement,setting,value
CC1COCCN1c1cc(C2(O)CC3CCC(C2)O3)c2cnn(-c3ccn[nH]3)c2n1 (stereo not drawn) + CN(C)c1ccc(Nc2c3ccc(NC(=O)CCN4CCCC4)cc3nc3cc(NC(=O)CCN4CCCC4)ccc23)cc1,IC50,second compound 0.0316 µM,2.84 µM
same,IC50,second compound 0.1 µM,2.41 µM
same,IC50,second compound 0.316 µM,0.341 µM
same,IC50,second compound 1 µM,0.555 µM
same,IC50,second compound 3.16 µM,0.0909 µM
same,IC50,second compound 10 µM,0.0434 µM
same,"viability, T/C",[1],74.7%
same,"viability, T/C",[2],80.9%
same,"viability, T/C",[3],72.7%
same,"viability, T/C",[4],69%
same,"viability, T/C",[5],47.7%
same,"viability, T/C",[6],47.2%
same,"viability, T/C",[7],77.4%
same,"viability, T/C",[8],89.3%
same,"viability, T/C",[9],75%
same,"viability, T/C",[10],60.8%
same,"viability, T/C",[11],45.2%
same,"viability, T/C",[12],46%
same,"viability, T/C",[13],64.9%
same,"viability, T/C",[14],50.3%
same,"viability, T/C",[15],50.4%
same,"viability, T/C",[16],41.9%
same,"viability, T/C",[17],50.8%
same,"viability, T/C",[18],28.8%
same,"viability, T/C",[19],55.5%
same,"viability, T/C",[20],51.1%
same,"viability, T/C",[21],50.1%
same,"viability, T/C",[22],47.2%
same,"viability, T/C",[23],43.7%
same,"viability, T/C",[24],27.6%
same,"viability, T/C",[25],57.6%
same,"viability, T/C",[26],39.4%
same,"viability, T/C",[27],52.8%
same,"viability, T/C",[28],37.8%
same,"viability, T/C",[29],39.5%
same,"viability, T/C",[30],27.3%
same,"viability, T/C",[31],53.5%
same,"viability, T/C",[32],42.1%
same,"viability, T/C",[33],37.6%
same,"viability, T/C",[34],37.4%
same,"viability, T/C",[35],29.3%
same,"viability, T/C",[36],25.4%
Nc1ccn(C2OC(CO)C(O)C2(F)F)c(=O)n1 (stereo not drawn) + Cc1cnc(CNC(=O)c2c(=O)c3ccc(N4CCCN(C)CC4)nc3n3c2sc2ccccc23)cn1,IC50,second compound 0.0316 µM,> 10 µM
same,IC50,second compound 0.1 µM,> 10 µM
same,IC50,second compound 0.316 µM,> 10 µM
same,IC50,second compound 1 µM,> 10 µM
same,IC50,second compound 3.16 µM,> 10 µM
same,IC50,second compound 10 µM,> 10 µM
same,"viability, T/C",[1],82.7%
same,"viability, T/C",[2],77.7%
same,"viability, T/C",[3],83.8%
same,"viability, T/C",[4],81.1%
same,"viability, T/C",[5],88.4%
same,"viability, T/C",[6],72.6%
same,"viability, T/C",[7],89.8%
same,"viability, T/C",[8],87.9%
same,"viability, T/C",[9],80.7%
same,"viability, T/C",[10],93.3%
same,"viability, T/C",[11],84.4%
same,"viability, T/C",[12],79.9%
same,"viability, T/C",[13],80%
same,"viability, T/C",[14],97.9%
same,"viability, T/C",[15],86.6%
same,"viability, T/C",[16],80.4%
same,"viability, T/C",[17],77%
same,"viability, T/C",[18],76.7%
same,"viability, T/C",[19],94.2%
same,"viability, T/C",[20],78.8%
same,"viability, T/C",[21],105%
same,"viability, T/C",[22],83.8%
same,"viability, T/C",[23],82.5%
same,"viability, T/C",[24],79.9%
same,"viability, T/C",[25],80%
same,"viability, T/C",[26],68%
same,"viability, T/C",[27],91.8%
same,"viability, T/C",[28],73.2%
same,"viability, T/C",[29],66.3%
same,"viability, T/C",[30],62.3%
same,"viability, T/C",[31],65.8%
same,"viability, T/C",[32],75.2%
same,"viability, T/C",[33],69.5%
same,"viability, T/C",[34],78.2%
same,"viability, T/C",[35],65.2%
same,"viability, T/C",[36],57.5%
Cn1ncnc1[C@H]1c2n[nH]c(=O)c3cc(F)cc(c23)N[C@@H]1c1ccc(F)cc1 + CN(C)c1ccc(Nc2c3ccc(NC(=O)CCN4CCCC4)cc3nc3cc(NC(=O)CCN4CCCC4)ccc23)cc1,IC50,second compound 0.0316 µM,> 0.316 µM
same,IC50,second compound 0.1 µM,> 0.316 µM
same,IC50,second compound 0.316 µM,> 0.316 µM
same,IC50,second compound 1 µM,> 0.316 µM
same,IC50,second compound 3.16 µM,> 0.316 µM
same,IC50,second compound 10 µM,< 0.000999 µM
same,"viability, T/C",[37],81.5%
same,"viability, T/C",[38],96.6%
same,"viability, T/C",[39],85.2%
same,"viability, T/C",[1],88.2%
same,"viability, T/C",[40],94.6%
same,"viability, T/C",[3],97.8%
same,"viability, T/C",[41],90.3%
same,"viability, T/C",[42],81.3%
same,"viability, T/C",[43],90.7%
same,"viability, T/C",[7],84.7%
same,"viability, T/C",[44],70.4%
same,"viability, T/C",[9],64.3%
same,"viability, T/C",[45],68%
same,"viability, T/C",[46],62.4%
same,"viability, T/C",[47],69.6%
same,"viability, T/C",[13],61.3%
same,"viability, T/C",[48],61.9%
same,"viability, T/C",[15],67.4%
same,"viability, T/C",[49],57.5%
same,"viability, T/C",[50],51%
same,"viability, T/C",[51],42.3%
same,"viability, T/C",[19],58.1%
same,"viability, T/C",[52],48%
same,"viability, T/C",[21],52.8%
same,"viability, T/C",[53],62.4%
same,"viability, T/C",[54],60.7%
same,"viability, T/C",[55],54.5%
same,"viability, T/C",[25],60.7%
same,"viability, T/C",[56],59.9%
same,"viability, T/C",[27],52.7%
same,"viability, T/C",[57],47.2%
same,"viability, T/C",[58],43.1%
same,"viability, T/C",[59],55.8%
same,"viability, T/C",[31],47.6%
same,"viability, T/C",[60],57.1%
same,"viability, T/C",[33],54.2%
CCc1c2c(nc3ccc(O)cc13)-c1cc3c(c(=O)n1C2)COC(=O)[C@]3(O)CC + Cc1cnc(CNC(=O)c2c(=O)c3ccc(N4CCCN(C)CC4)nc3n3c2sc2ccccc23)cn1,IC50,second compound 0.0316 µM,> 0.316 µM
same,IC50,second compound 0.1 µM,> 0.316 µM
same,IC50,second compound 0.316 µM,> 0.316 µM
same,IC50,second compound 1 µM,> 0.316 µM
same,IC50,second compound 3.16 µM,> 0.316 µM
same,IC50,second compound 10 µM,> 0.316 µM
same,"viability, T/C",[37],96.8%
same,"viability, T/C",[38],92.2%
same,"viability, T/C",[39],90.9%
same,"viability, T/C",[1],90%
same,"viability, T/C",[40],99.4%
same,"viability, T/C",[3],103%
same,"viability, T/C",[41],97.9%
same,"viability, T/C",[42],90.4%
same,"viability, T/C",[43],90.6%
same,"viability, T/C",[7],110%
same,"viability, T/C",[44],94.2%
same,"viability, T/C",[9],89.2%
same,"viability, T/C",[45],91.6%
same,"viability, T/C",[46],103%
same,"viability, T/C",[47],105%
same,"viability, T/C",[13],84.8%
same,"viability, T/C",[48],85.8%
same,"viability, T/C",[15],79.4%
same,"viability, T/C",[49],85.4%
same,"viability, T/C",[50],74.7%
same,"viability, T/C",[51],84.7%
same,"viability, T/C",[19],77%
same,"viability, T/C",[52],83.2%
same,"viability, T/C",[21],76.2%
same,"viability, T/C",[53],81.6%
same,"viability, T/C",[54],96.1%
same,"viability, T/C",[55],80.2%
same,"viability, T/C",[25],67.4%
same,"viability, T/C",[56],85.1%
same,"viability, T/C",[27],71.5%
same,"viability, T/C",[57],72.4%
same,"viability, T/C",[58],88.4%
same,"viability, T/C",[59],75.5%
same,"viability, T/C",[31],65.5%
same,"viability, T/C",[60],77.8%
same,"viability, T/C",[33],62%

# — PubChem BioAssay AID2060496 (Molecular Pharmacology Branch, DTP, NCI, 2025)
